Where two headings read alike, the source gives them in different places.
Key:
CHIKV-nLuc = experiment: microbe, parasite or virus in culture; assay type: cell-based; conditions: Chikungunya virus, MRC5, 6 h, read-out: EC50 (CHIKV-nLuc replication)
[1] = target: HEK293 cell lysate proteins and CHIKV nsP2 (Homo sapiens, UniProt P05089); assay type: binding
[2] = target: HEK293 cell lysate proteins and CHIKV nsP2 (Homo sapiens, UniProt Q8TEQ6); assay type: binding
[3] = target: HEK293 cell lysate proteins and CHIKV nsP2 (Homo sapiens, UniProt Q9NYF8); assay type: binding
[4] = target: HEK293 cell lysate proteins and CHIKV nsP2 (Homo sapiens, UniProt P11142); assay type: binding
[5] = target: HEK293 cell lysate proteins and CHIKV nsP2 (Homo sapiens, UniProt P07339); assay type: binding
[6] = test system: HEK293 cell lysate proteins and CHIKV nsP2; assay type: binding; conditions: protein nsP2 (nsP2_AA993-AA1333_Tags)
[7] = target: HEK293 cell lysate proteins and CHIKV nsP2 (Homo sapiens, UniProt Q99459); assay type: binding
[8] = target: HEK293 cell lysate proteins and CHIKV nsP2 (Homo sapiens, UniProt Q14241); assay type: binding
[9] = target: HEK293 cell lysate proteins and CHIKV nsP2 (Homo sapiens, UniProt O60524); assay type: binding
[10] = target: HEK293 cell lysate proteins and CHIKV nsP2 (Homo sapiens, UniProt Q96QA5); assay type: binding
[11] = target: HEK293 cell lysate proteins and CHIKV nsP2 (Homo sapiens, UniProt P42357); assay type: binding
[12] = target: HEK293 cell lysate proteins and CHIKV nsP2 (Homo sapiens, UniProt P04259); assay type: binding
[13] = target: HEK293 cell lysate proteins and CHIKV nsP2 (Homo sapiens, UniProt Q02413); assay type: binding
[14] = target: HEK293 cell lysate proteins and CHIKV nsP2 (Homo sapiens, UniProt O75342); assay type: binding
[15] = target: HEK293 cell lysate proteins and CHIKV nsP2 (Homo sapiens, UniProt Q9UHB7); assay type: binding
[16] = target: HEK293 cell lysate proteins and CHIKV nsP2 (Homo sapiens, UniProt Q9UQ35); assay type: binding
[17] = target: HEK293 cell lysate proteins and CHIKV nsP2 (Homo sapiens, UniProt P12273); assay type: binding
[18] = target: HEK293 cell lysate proteins and CHIKV nsP2 (Homo sapiens, UniProt Q8NE71); assay type: binding
[19] = target: HEK293 cell lysate proteins and CHIKV nsP2 (Homo sapiens, UniProt Q3YEC7); assay type: binding
[20] = target: HEK293 cell lysate proteins and CHIKV nsP2 (Homo sapiens, UniProt Q15424); assay type: binding
[21] = target: HEK293 cell lysate proteins and CHIKV nsP2 (Homo sapiens, UniProt P31151); assay type: binding
[22] = target: HEK293 cell lysate proteins and CHIKV nsP2 (Homo sapiens, UniProt P06702); assay type: binding
[23] = target: HEK293 cell lysate proteins and CHIKV nsP2 (Homo sapiens, UniProt P46013); assay type: binding
[24] = target: HEK293 cell lysate proteins and CHIKV nsP2 (Homo sapiens, UniProt Q6ZVX7); assay type: binding
[25] = target: HEK293 cell lysate proteins and CHIKV nsP2 (Homo sapiens, UniProt Q7L014); assay type: binding
[26] = target: HEK293 cell lysate proteins and CHIKV nsP2 (Homo sapiens, UniProt P32119); assay type: binding
[27] = target: HEK293 cell lysate proteins and CHIKV nsP2 (Homo sapiens, UniProt P25311); assay type: binding
[28] = target: HEK293 cell lysate proteins and CHIKV nsP2 (Homo sapiens, UniProt Q08554); assay type: binding
[29] = target: HEK293 cell lysate proteins and CHIKV nsP2 (Homo sapiens, UniProt P06733); assay type: binding
[30] = target: HEK293 cell lysate proteins and CHIKV nsP2 (Homo sapiens, UniProt P22735); assay type: binding
[31] = target: HEK293 cell lysate proteins and CHIKV nsP2 (Homo sapiens, UniProt Q08188); assay type: binding
[32] = target: HEK293 cell lysate proteins and CHIKV nsP2 (Homo sapiens, UniProt P46821); assay type: binding
[33] = target: HEK293 cell lysate proteins and CHIKV nsP2 (Homo sapiens, UniProt P68104); assay type: binding
[34] = target: HEK293 cell lysate proteins and CHIKV nsP2 (Homo sapiens, UniProt P01040); assay type: binding
[35] = target: HEK293 cell lysate proteins and CHIKV nsP2 (Homo sapiens, UniProt P55786); assay type: binding

Chain of HEK293 cell lysate proteins and CHIKV nsP2 (Homo sapiens, UniProt Q08554) (Q08554 135-894): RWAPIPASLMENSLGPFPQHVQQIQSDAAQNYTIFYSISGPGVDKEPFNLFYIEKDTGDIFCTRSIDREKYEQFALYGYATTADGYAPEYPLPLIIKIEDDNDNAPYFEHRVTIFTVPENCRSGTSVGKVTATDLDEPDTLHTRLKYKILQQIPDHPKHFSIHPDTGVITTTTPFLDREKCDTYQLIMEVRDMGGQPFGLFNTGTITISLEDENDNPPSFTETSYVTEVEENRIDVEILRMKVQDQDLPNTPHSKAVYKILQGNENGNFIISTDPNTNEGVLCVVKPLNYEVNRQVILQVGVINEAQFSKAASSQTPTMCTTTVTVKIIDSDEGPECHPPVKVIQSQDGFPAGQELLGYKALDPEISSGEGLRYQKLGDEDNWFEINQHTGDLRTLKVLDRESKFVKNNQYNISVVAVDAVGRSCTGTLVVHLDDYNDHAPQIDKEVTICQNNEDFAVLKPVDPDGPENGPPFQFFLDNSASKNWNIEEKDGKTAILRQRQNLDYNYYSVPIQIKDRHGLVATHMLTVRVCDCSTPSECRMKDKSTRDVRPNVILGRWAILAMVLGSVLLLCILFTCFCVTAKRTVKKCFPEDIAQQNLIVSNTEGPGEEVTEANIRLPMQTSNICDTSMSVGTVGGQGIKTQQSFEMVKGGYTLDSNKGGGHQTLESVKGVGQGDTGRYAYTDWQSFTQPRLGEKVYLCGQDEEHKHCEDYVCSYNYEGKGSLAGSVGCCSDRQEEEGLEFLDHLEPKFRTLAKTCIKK
Chain of HEK293 cell lysate proteins and CHIKV nsP2 (Homo sapiens, UniProt P01040) (P01040 whole entry): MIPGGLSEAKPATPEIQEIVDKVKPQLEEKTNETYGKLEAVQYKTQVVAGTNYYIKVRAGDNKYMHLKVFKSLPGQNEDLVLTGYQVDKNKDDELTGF
Chain of HEK293 cell lysate proteins and CHIKV nsP2 (Homo sapiens, UniProt Q08188) (Q08188 whole entry): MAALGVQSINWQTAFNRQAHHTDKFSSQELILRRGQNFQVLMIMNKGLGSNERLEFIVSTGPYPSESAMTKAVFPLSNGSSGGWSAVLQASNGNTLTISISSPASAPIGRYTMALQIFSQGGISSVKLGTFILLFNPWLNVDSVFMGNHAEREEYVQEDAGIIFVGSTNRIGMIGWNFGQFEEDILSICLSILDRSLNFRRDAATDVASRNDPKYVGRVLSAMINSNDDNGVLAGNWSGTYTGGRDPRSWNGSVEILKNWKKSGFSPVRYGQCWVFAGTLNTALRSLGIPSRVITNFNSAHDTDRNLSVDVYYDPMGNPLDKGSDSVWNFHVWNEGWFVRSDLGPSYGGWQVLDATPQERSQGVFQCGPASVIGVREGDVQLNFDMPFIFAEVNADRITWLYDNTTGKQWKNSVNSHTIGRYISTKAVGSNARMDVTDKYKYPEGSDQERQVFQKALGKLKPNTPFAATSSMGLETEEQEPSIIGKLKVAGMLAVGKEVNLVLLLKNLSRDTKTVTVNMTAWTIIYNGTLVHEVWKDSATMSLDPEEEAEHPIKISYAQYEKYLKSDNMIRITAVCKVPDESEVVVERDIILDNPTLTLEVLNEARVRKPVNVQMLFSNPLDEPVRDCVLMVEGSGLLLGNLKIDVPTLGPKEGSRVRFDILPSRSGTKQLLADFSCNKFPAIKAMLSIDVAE
Chain of HEK293 cell lysate proteins and CHIKV nsP2 (Homo sapiens, UniProt P06733) (P06733 whole entry): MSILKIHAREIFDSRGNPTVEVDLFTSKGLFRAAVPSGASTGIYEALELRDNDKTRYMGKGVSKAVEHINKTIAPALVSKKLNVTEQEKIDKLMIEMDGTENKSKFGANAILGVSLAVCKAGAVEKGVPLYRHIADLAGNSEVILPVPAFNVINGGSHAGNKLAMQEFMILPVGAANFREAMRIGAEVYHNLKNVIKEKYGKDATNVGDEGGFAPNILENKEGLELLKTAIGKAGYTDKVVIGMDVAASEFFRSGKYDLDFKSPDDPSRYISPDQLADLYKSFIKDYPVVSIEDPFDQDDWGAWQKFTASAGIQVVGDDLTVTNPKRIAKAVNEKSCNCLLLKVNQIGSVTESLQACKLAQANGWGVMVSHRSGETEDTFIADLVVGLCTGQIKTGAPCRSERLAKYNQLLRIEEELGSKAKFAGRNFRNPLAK
Chain of HEK293 cell lysate proteins and CHIKV nsP2 (Homo sapiens, UniProt P42357) (P42357 whole entry): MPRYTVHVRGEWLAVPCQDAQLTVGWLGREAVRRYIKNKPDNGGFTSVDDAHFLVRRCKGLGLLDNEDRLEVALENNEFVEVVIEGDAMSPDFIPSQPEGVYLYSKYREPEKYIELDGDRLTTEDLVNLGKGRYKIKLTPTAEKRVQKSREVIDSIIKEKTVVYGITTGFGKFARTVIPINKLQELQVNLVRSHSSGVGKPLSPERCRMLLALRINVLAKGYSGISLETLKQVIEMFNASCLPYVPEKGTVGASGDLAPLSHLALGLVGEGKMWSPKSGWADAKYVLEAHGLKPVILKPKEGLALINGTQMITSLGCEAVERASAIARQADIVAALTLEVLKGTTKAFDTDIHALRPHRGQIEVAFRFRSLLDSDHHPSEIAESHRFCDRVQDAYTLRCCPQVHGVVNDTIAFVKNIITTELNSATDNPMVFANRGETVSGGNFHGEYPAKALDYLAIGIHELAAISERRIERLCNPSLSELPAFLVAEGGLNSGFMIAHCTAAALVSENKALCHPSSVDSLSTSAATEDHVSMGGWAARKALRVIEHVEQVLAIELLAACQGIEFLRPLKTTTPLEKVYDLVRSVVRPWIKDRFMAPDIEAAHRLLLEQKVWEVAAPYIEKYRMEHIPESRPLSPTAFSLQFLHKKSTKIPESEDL
Chain of HEK293 cell lysate proteins and CHIKV nsP2 (Homo sapiens, UniProt P32119) (P32119 whole entry): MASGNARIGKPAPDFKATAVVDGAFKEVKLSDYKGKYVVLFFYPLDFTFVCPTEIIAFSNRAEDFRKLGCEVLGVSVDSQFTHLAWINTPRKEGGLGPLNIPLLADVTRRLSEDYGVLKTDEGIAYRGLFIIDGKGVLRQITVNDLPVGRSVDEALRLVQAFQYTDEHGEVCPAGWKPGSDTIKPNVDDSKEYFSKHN
Chain of HEK293 cell lysate proteins and CHIKV nsP2 (Homo sapiens, UniProt Q02413) (Q02413 50-1049): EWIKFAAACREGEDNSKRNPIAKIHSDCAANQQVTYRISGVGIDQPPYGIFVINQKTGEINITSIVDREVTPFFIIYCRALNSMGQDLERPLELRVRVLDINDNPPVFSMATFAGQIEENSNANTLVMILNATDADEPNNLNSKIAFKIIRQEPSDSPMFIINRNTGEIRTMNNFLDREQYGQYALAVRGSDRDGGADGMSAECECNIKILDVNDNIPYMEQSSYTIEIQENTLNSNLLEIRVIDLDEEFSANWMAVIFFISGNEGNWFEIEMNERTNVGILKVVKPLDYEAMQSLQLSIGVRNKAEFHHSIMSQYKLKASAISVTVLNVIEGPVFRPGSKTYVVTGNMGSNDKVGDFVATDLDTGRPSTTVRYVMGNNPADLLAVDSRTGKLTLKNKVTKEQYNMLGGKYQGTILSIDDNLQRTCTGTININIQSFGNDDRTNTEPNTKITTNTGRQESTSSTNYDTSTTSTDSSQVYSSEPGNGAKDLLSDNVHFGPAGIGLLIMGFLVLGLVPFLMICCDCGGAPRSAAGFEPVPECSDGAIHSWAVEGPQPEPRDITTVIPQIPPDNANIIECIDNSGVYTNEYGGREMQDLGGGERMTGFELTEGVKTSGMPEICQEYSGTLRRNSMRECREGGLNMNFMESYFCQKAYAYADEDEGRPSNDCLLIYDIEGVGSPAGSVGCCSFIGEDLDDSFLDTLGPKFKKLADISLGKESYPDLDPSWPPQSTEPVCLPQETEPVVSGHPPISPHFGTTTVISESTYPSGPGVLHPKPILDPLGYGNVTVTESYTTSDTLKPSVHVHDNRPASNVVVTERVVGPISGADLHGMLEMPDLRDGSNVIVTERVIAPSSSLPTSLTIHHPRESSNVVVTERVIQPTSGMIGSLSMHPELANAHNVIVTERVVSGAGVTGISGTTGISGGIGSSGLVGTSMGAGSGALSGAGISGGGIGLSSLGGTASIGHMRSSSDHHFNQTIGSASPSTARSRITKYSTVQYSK
Chain of HEK293 cell lysate proteins and CHIKV nsP2 (Homo sapiens, UniProt P22735) (P22735 whole entry): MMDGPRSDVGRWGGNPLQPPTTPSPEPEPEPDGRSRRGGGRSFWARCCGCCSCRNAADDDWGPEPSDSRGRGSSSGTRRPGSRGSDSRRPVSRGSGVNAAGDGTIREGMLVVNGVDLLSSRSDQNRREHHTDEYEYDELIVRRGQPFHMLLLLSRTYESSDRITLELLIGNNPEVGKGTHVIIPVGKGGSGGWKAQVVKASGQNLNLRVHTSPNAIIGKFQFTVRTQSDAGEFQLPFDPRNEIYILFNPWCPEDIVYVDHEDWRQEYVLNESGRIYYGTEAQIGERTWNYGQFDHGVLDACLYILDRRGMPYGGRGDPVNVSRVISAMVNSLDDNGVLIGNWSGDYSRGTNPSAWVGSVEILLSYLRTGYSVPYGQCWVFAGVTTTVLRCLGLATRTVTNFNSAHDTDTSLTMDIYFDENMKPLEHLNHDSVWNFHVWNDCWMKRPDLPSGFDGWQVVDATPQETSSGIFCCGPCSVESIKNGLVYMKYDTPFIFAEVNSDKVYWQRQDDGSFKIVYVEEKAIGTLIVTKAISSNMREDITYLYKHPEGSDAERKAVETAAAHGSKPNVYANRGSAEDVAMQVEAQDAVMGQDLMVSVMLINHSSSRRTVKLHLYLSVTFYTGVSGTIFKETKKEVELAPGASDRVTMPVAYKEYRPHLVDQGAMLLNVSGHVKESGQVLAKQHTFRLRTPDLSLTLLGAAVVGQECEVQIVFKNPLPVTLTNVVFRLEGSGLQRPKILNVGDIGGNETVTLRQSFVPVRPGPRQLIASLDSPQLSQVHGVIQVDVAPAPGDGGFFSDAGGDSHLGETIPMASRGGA
Chain of HEK293 cell lysate proteins and CHIKV nsP2 (Homo sapiens, UniProt P06702) (P06702 whole entry): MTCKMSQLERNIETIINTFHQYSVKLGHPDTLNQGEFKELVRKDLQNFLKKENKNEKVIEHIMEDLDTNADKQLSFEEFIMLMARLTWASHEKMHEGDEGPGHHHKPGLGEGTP
Chain of HEK293 cell lysate proteins and CHIKV nsP2 (Homo sapiens, UniProt P31151) (P31151 whole entry): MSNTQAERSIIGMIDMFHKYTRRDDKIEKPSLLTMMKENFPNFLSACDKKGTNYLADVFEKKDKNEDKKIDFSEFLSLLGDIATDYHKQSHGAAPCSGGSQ

With `C#CCOc1ccccc1-c1cc(C(=O)NC/C=C/S(C)(=O)=O)on1` [VS, (E)-N-(3-(methylsulfonyl)allyl)−3-(2-(prop-2-yn-1-yloxy)phenyl)isoxazole-5-carboxamide] the EC50 (CHIKV-nLuc) was 33 nM, the Log2 fold change [1] was 1.79 and the Log2 fold change [2] was -0.32. It also gave a Log2 fold change [3] of -0.75, a Log2 fold change [4] of 1.15 and a Log2 fold change [5] of 1.67. For the same compound, the Log2 fold change [6] was 1.03, the Log2 fold change ([6]; sheet nsP2 spike) was 7.13 and the Log2 fold change [7] was -0.00878. For the same compound, the Log2 fold change [8] was -1.01, the Log2 fold change [9] was -0.75 and the Log2 fold change [10] was 1.51. The Log2 fold change [11] was 1.12, the Log2 fold change [12] was 3.24 and the Log2 fold change [13] was 1.36. For the same compound, the Log2 fold change [14] was 2.14, the Log2 fold change [15] was -0.42 and the Log2 fold change [16] was 0.25. It also gave a Log2 fold change [17] of 1.00, a Log2 fold change [18] of -0.92 and a Log2 fold change [19] of -2.27. It also gave a Log2 fold change [20] of 1.46, a Log2 fold change [21] of -1.22 and a Log2 fold change [22] of 1.63. The Log2 fold change [23] was 0.64, the Log2 fold change [24] was 2.74 and the Log2 fold change [25] was -0.13. It also gave a Log2 fold change [26] of 2.04, a Log2 fold change [27] of 1.43 and a Log2 fold change [28] of 0.93. The Log2 fold change [29] was 1.36, the Log2 fold change [30] was 1.60 and the Log2 fold change [31] was 1.61. It also gave a Log2 fold change [32] of -0.63, a Log2 fold change [33] of 0.56 and a Log2 fold change [34] of 1.75. The Log2 fold change [35] was 2.43.

Reference: PMC11873239, “A covalent chemical probe for Chikungunya nsP2 cysteine protease with antialphaviral activity and proteome-wide selectivity” (Scientific Reports, 2025)
